PubChem BioAssay AID2202554 (NIEHS Division of Translational Toxicology (DTT))
Records with an inconclusive call do not appear. The source made the active and inactive calls. The rule behind the calls is not given here.

Tested on: S. typhimurium/E. coli reverse mutation, colony counts
Experiment: Bacterial reverse mutation test (aka Ames test) summary data
Method in brief: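 S. typhimurium his⁻ strains (TA97–TA1538) and E. coli WP2 uvrA pKM101 trp⁻, dosed over a range with or without rat, hamster or mouse liver S9. Preincubated 20 min at 37° C (or plate incorporation), plated in agar, incubated usually two days. Revertant colonies counted against negative controls.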

Row | Compound | outcome
1 | CCN(CC)N=O | active; positive
2 | Nc1ccc(Br)cc1 | inactive; negative
3 | NCCCNCCCN | inactive; negative
4 | COc1cc([N+](=O)[O-])ccc1N | active; positive
5 | O=C(O)CNCP(=O)(O)O | inactive; negative
6 | O=C(OCC(COC(=O)c1ccccc1)(COC(=O)c1ccccc1)COC(=O)c1ccccc1)c1ccccc1 | inactive; negative
7 | ClC1C(Cl)C(Cl)C(Cl)C(Cl)C1Cl (stereo not given) | inactive; negative
8 | CCCCC(CC)COC(=O)c1ccc(C(=O)OCC(CC)CCCC)c(C(=O)OCC(CC)CCCC)c1 (stereo not given) | inactive; negative
9 | CCCCCCCCCCCC[S][Sn]([CH2]CCC)([CH2]CCC)[S]CCCCCCCCCCCC | inactive; negative
10 | CCCCOC(=O)c1ccc(O)cc1 | inactive; negative
11 | O=C(Nc1ccc(Cl)cc1)Nc1ccc(Cl)c(Cl)c1 | inactive; negative
12 | CCCCCCCCCCCCCCCCCC(=O)O | inactive; negative
13 | O=c1n(CC2CO2)c(=O)n(CC2CO2)c(=O)n1CC1CO1 (stereo not given) | active; positive
14 | CNNCc1ccc(C(=O)NC(C)C)cc1 | inactive; negative
15 | Clc1ccc(Cl)c(Cl)c1Cl | inactive; negative
16 | S=P(N1CC1)(N1CC1)N1CC1 | active; positive
17 | CNc1ccccc1 | inactive; negative
18 | Cc1cc(Cl)ccc1O | inactive; negative
19 | Clc1c(Cl)c(Cl)c2c(Cl)c(Cl)c(Cl)c(Cl)c2c1Cl | inactive; negative
20 | O=C(O)CCCc1ccc(N(CCCl)CCCl)cc1 | active; positive
21 | S=C1NCCN1 | active; weakly positive
22 | NCCNCCO | active; weakly positive
23 | CC#N | inactive; negative
24 | C=CC(=O)NCNC(=O)C=C | active; positive
25 | Clc1cc(Cl)c(Cl)c(Cl)c1Cl | inactive; negative

Row | Compound | outcome
26 | CCCCO | inactive; negative
27 | Nc1c(Oc2ccccc2)cc(O)c2c1C(=O)c1ccccc1C2=O | active; positive
28 | Brc1cccc(-c2ccccc2)c1 | inactive; negative
29 | Nc1ccc(-c2ccccc2)cc1 | active; positive
30 | CC(C)C(C)C | inactive; negative
31 | c1cc2c3c(cccc3c1)CC2 | inactive; negative
32 | CCOC(=O)OCC | inactive; negative
33 | O=[N+]([O-])c1ccc2c(c1)Cc1cccc([N+](=O)[O-])c1-2 | active; positive
34 | BrCC1CO1 (stereo not given) | active; positive
35 | Cc1cccc(C(=O)O)c1[N+](=O)[O-] | active; positive
36 | CC(C)N | inactive; negative
37 | N#CC(Cl)(Cl)Cl | active; weakly positive
38 | CCOP(=O)(OCC)OCC | inactive; negative
39 | Cc1cc(=O)[nH]c(=S)[nH]1 | inactive; negative
40 | O=C1OC2(c3ccccc31)c1cc(Br)c(O)c(Br)c1Oc1c2cc(Br)c(O)c1Br | active; positive
41 | CCOc1ccc2c(c1)C(C)=CC(C)(C)N2 | inactive; negative
42 | O=C(OCC1CO1)C1CCCCC1C(=O)OCC1CO1 (stereo not given) | active; positive
43 | CNCCS(=O)(=O)O | inactive; negative
44 | CC(C)(C)OOC(=O)c1ccccc1 | active; positive
45 | CCC=CC#N | inactive; negative
46 | ClC=CCl | inactive; negative
47 | CC(=O)Nc1ccccc1N | active; positive
48 | Clc1cccc(Cl)c1Cl | inactive; negative
49 | O=CC(=O)c1ccccc1 | active; positive
50 | OCCOc1ccccc1 | inactive; negative

Row | Compound | outcome
51 | Oc1ccc(O)cc1 | inactive; negative
52 | COC(C)=O | inactive; negative
53 | C=CC(=C)CCC=C(C)C | inactive; negative
54 | [O-]/[N+](=N\O)c1ccccc1 | active; positive
55 | CC1(C)C(=O)N(Cl)C(=O)N1Cl | inactive; negative
56 | NCCCOCCOCCOCCCN | inactive; negative
57 | O=S(=O)(O)c1ccccc1 | inactive; negative
58 | CNC(C)Cc1ccccc1 (stereo not given) | inactive; negative
59 | CCCSC(=O)Cl | active; positive
60 | CC(Cl)CN(C)C (stereo not given) | active; positive
61 | Clc1c(Cl)c(Cl)c2c(c1Cl)Oc1c(Cl)c(Cl)c(Cl)c(Cl)c1O2 | inactive; negative
62 | O=C(CO)CO | active; positive
63 | CCNc1nc(Cl)nc(NC(C)C)n1 | inactive; negative
64 | Cc1ccc(C(C)(C)O)cc1 | inactive; negative
65 | CC(COc1ccccc1)N(CCCl)Cc1ccccc1 (stereo not given) | active; positive
66 | Clc1ccccc1Cl | inactive; negative
67 | C[n+]1cccc(C(=O)[O-])c1 | inactive; negative
68 | CC(=O)Nc1ccc(C(=O)O)cc1 | inactive; negative
69 | O=c1c2ccc3c4c(ccc(c24)c2nc4ccccc4n12)c(=O)n1c2ccccc2nc31 | active; positive
70 | Nc1ccc(Cl)cc1[N+](=O)[O-] | active; positive
71 | CC(=O)C=Cc1ccccc1 | active; positive
72 | CCO | inactive; negative
73 | CC(=O)c1ccccn1 | inactive; negative
74 | CN(Cc1cnc2nc(N)nc(N)c2n1)c1c(Cl)cc(C(=O)N[C@@H](CCC(=O)O)C(=O)O)cc1Cl | active; weakly positive
75 | N#CCC#N | inactive; negative

Row | Compound | outcome
76 | NC(=O)CC(N)=O | inactive; negative
77 | BrCCBr | active; positive
78 | OCC1CO1 (stereo not given) | active; positive
79 | CC(C)CC(C)Nc1ccc(Nc2ccccc2)cc1 (stereo not given) | inactive; negative
80 | C=Cc1ccccc1 | inactive; negative
81 | NC(=O)Nc1nc2ccccc2[nH]1 | active; positive
82 | O=C1C(Cl)=C(Cl)C(=O)C(Cl)=C1Cl | active; positive
83 | O=C(Cc1ccccc1)OCc1ccccc1 | inactive; negative
84 | CCCCCCCCC=O | inactive; negative
85 | COc1ccc(C(=O)/C(Br)=C\C(=O)O)cc1 | active; positive
86 | CCN(CC)c1ccc2c(C)cc(=O)oc2c1 | inactive; negative
87 | CCCCNCC | inactive; negative
88 | CC(=O)OCCOCCOCCOC(C)=O | active; positive
89 | C=CCC1(C(C)C#CCC)C(=O)N=C(O)N(C)C1=O (stereo not given) | inactive; negative
90 | C=C(C)/C([O-])=N/[N+](C)(C)CC(C)O (stereo not given) | inactive; negative
91 | c1ccoc1 | active; weakly positive
92 | [CH3][Sn]([CH3])([Cl])[Cl] | inactive; negative
93 | Nc1nc2cc(Cl)c(Cl)cc2s1 | inactive; negative
94 | c1ccc2[nH]c(-c3cscn3)nc2c1 | active; positive
95 | CC(C=O)=Cc1ccccc1 | inactive; negative
96 | Nc1ccccc1C(=O)OCCc1ccccc1 | inactive; negative
97 | OCC(Br)=C(Br)CO | active; positive
98 | O=C(O)C(Cl)(Cl)Cl | inactive; negative
99 | Cc1c(N)cccc1N | active; positive
100 | CCCCCCCCCCCC(=O)[O][Sn]([CH2]CCC)([CH2]CCC)[O]C(=O)CCCCCCCCCCC | inactive; negative
